Experimental data taken from patent US20140004209A1, “AUTOPHAGY INDUCER AND INHIBITOR COMBINATION THERAPY FOR THE TREATMENT OF NEOPLASMS” (GENENTECH, INC., priority 2010, published 2014).
Entries after “also recorded” stand apart in the source; their conditions may differ. Like-named read-outs stand apart in the source and are kept apart here.

Key:
[1] = tested on: MDA-MB-231 (Kras, Braf, p53 mut, Triple- and Basal) cell line; assay: CellTiter-Glo growth inhibition, III-4 and CQ combination; format: cell-based
Description: (§1) FIG. 26B depicts the CI (combination index) by using bar graphs for data obtained by CellTiter-Glo assay at day 4 of treatment with 10% serum.

[2] = tested on: multiple cell lines; assay: ED50 of CQ, AKTi and combination by CellTiter-Glo in multiple cell lines; format: cell-based; conditions: day 4, 10% serum
Description: as §1

[3] = tested on: U87MG (PTEN-, PI3K mut (1391M)) cell line; assay: CellTiter-Glo growth inhibition, III-4 and CQ combination; format: cell-based, human; conditions: 1:1.5 ratio
Description: as §1
FIGS. 30A-B depicts data for the U87MG (PTEN-, PI3K mut (1391M)) cell line.

[4] = tested on: MDA-361.1 (PI2-K mut (E545K), Her2+, HR+ and Luminal) cell line; assay: as above; format: cell-based; conditions: 1:12.5 ratio
Description: as §1
FIGS. 28A-B depicts data for the MDA-361.1 (PI2-K mut (E545K), Her2+, HR+ and Luminal) cell line.

[5] = Cell death in combination with CQ (FIG. 17); format: cell-based
[6] = tested on: PC3 (PTEN-, p53- and Al) cell line; assay: CellTiter-Glo growth inhibition, III-4 and CQ combination; format: cell-based, human; conditions: 1:25 ratio
Description: as §1
FIGS. 27A-B depicts data for the PC3 (PTEN-, p53- and Al) cell line.

[7] = tested on: PC3 cells; assay: Microarray analysis of autophagy gene expression in PC3 cells; format: cell-based, human; conditions: 1 or 5 μM for 6 or 24 hours, normalized to DMSO
Description: PC3 cells were induced to express shRNA to indicated Akt isoforms for 72 hours by Doxycycline, RNA was extracted from both Dox treated (Dox+) or untreated control (Dox−) cells. Microarray analysis was carried out using Affymetrix chips. Ratios of the expression levels of each autophagy gene from Dox+ and Dox− samples are shown. Data are mean values from 3 independent experiments.
RNA was extracted from the cells. Microarray analysis was carried out using Affymetrix chips. Expression levels of each autophagy gene are normalized to the DMSO controls. Data are mean values from 3 independent experiments.

[8] = tested on: class I PI3Ks and mTOR; conditions: cited from earlier work
[9] = molecular target: class III PI3K (Homo sapiens, UniProt Q8NEB9); conditions: cited from earlier work
[10] = tested on: PC3 cells; assay: Autophagy markers in PC3 cells (EM AVs, GFP-LC3, LC3-II/LC3-I, MDC, AO); format: cell-based, human
Description: Western blot analysis, immunofluorescence, 1HC and TUNEL assay: For Western blot analysis, total protein lysates were subjected to SDS-PAGE and transferred to nitrocellulose. […] Detection and quantification were performed using an Odyssey infrared scanner (LICOR) using the manufacturer's software. For immunofluorescence staining, cells were fixed in 3% paraformaldehyde and permeabilized with 0.01% digitonin in PBS, followed by a rabbit polyclonal anti-LC3 (Abgent) primary antibody detected with a cy3-conjugated anti-rabbit secondary antibody (Jackson Immunoresearch). For IHC, formalin-fixed, paraffin-embedded specimens were collected. 5-μm-thick paraffin-embedded sections were stained using an anti-Ki-67 (MIB-1, DakoCytomation) antibody with the Dako ARK kit (Dako Corporation). Tissues were counterstained with haematoxylin, dehydrated, and mounted. In all cases, antigen retrieval was performed with the Dako Target Retrieval Kit as per manufacturer's instructions. For TUNEL assay, formalin-fixed, paraffin-embedded sections were stained using an in situ cell death detection kit (POD; Roche Diagnostic) according to the manufacturer's instructions.
Ultrathin sections were stained with uranyl acetate and lead citrate. Numbers of AV were counted on systematically sampled cytoplasmic areas of 4.5 μm^2 (n≧64 per condition). The percent AV area was measured by means of a square mesh grid laid over ≧5 sets of systematically sampled micrographs with each set covering a cytoplasmic area ≧80 μm^2. The average percent of apoptotic nuclei in tumor tissues was calculated from the number of apoptotic nuclei in 3 to 4 sets of 100 systematically counted tumor cell nuclei.
Multispectral imaging flow cytometry: Cells treated with various agents were stained with Acridine Orange and analyzed by the ImageStream system (Amnis Corporation, Seattle, Wash.) using the IDEAS image analysis program. The DNA AOGreen image and the vacuolar AO Red image were first compensated into separate channels, and then the percentage of apoptotic/anucleate cells (based on AO nuclear morphology and intensity) and vacuolated cells (AO Red+) were quantified. […] AORed Intensity is plotted on the second histogram with an arbitrary gate (R5) drawn to include events with the brightest AO Red intensity.

[11] = tested on: PC3 cells; assay: PC3 cell viability and cell death (PI exclusion, annexin V, caspase-3/7); format: cell-based, human; conditions: 0.5 μM III-5, 10 μM CQ, 0.5% FBS
Description: Cell viability and cell cycle analysis. Cell number and viability was measured using trypan blue exclusion assay using a Vi-Cell Analyzer (Beckman Coulter), or labeled with 1 μg/ml PI in PBS/1% BSA followed by cytofluorometric analysis with a fluorescence-activated cell sorter (FACS) (Becton Dickinson). FITC-conjugated Annexin V was used for the assessment of phosphatidylserine exposure by FACS analysis. Caspase activation was analyzed using a Caspase-Glo 3/7 Assay kit (Promega). For cell cycle analysis, cells were fixed with drop-wise addition of chilled 70% ethanol, washed with PBS and resuspended in staining solution containing 50 μg/ml PI and 60 units of RNAse A. DNA content was analyzed by flow cytometry using the FlowJo and ModFit software (Becton Dickinson).

class III PI3K, sequence (Q8NEB9 whole entry): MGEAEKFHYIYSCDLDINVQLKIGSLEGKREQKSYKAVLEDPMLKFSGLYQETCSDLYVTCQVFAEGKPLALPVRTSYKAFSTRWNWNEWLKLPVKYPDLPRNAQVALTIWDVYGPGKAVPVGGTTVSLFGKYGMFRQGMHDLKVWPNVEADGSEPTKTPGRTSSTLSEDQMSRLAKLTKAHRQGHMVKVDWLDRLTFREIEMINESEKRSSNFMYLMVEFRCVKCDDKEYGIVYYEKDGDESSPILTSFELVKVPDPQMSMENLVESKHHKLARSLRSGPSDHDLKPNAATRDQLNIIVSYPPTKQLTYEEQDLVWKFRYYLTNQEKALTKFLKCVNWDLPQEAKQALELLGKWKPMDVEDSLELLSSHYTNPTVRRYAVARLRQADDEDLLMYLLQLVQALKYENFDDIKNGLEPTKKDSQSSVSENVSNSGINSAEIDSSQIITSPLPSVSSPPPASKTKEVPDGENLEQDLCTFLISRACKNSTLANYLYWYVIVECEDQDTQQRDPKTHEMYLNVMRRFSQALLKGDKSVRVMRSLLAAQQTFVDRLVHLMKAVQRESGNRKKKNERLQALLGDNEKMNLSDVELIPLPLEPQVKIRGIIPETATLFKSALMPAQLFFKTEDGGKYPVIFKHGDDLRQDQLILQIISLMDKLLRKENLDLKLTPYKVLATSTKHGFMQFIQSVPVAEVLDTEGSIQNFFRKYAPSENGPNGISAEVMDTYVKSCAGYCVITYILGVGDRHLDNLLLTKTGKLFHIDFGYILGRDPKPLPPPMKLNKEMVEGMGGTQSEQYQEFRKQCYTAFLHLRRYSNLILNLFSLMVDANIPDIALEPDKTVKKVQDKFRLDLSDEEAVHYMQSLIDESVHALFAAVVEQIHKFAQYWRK

SMILES	growth inhibition, III-4 and CQ combination vs single agents [1]	ED50 of combination with CQ vs single agents [2]	growth inhibition, III-4 and CQ combination vs single agents [3]	growth inhibition, III-4 and CQ combination vs single agents [4]	interaction with CQ on cell death [5]	growth inhibition, III-4 and CQ combination vs single agents [6]	autophagy gene expression [7]	inhibition of the class I PI3Ks and mTOR [8]	more potent on class I than class III PI3K [9]	less potent on the class III PI3K ([9]; relative to class I PI3Ks and mTOR)	induction of AV accumulation / autophagy, agent alone [10]	MDC+ vacuoles, III-5 in combination with CQ ([10]; 0.5 μM III-5, 10 μM CQ, 48 h)	induction of AV accumulation / autophagy, agent alone ([10]; listed as PI-103)	cell death, III-5 (PI-103) in combination with CQ [11]	cell death, III-5 (PI-103) in combination with CQ ([11]; listed as PI-103)
CC(C)NC[C@@H](C(=O)N1CCN(c2ncnc3c2[C@H](C)C[C@H]3O)CC1)c1ccc(Cl)cc1 [III-4, (S)-2-(4-chlorophenyl)-1-(4-((5R,7R)-7-hydroxy-5-methyl-6,7-dihydro-5H-cyclopenta[d]pyrimidin-4-yl)piperazin-1-yl)-3-(isopropylamino)propan-1-one]	the combination inhibits growth in the cell line at lower concentrations of III-4 than either III-4 alone or CQ alone	significantly lowers the ED50 for both the AKTi and CQ	the combination inhibits growth in the cell line at lower concentrations of III-4 than either III-4 alone or CQ alone	the combination inhibits growth in the cell line at lower concentrations of III-4 than either III-4 alone or CQ alone	synergize with CQ to accelerate cell death	the combination inhibits growth in the cell line at lower concentrations of III-4 than either III-4 alone or CQ alone	induce autophagy gene expression	–	–	–	–	–	–	–	–
Oc1cccc(-c2nc(N3CCOCC3)c3oc4ncccc4c3n2)c1 [III-5]	–	–	–	–	–	–	–	nanomolar concentrations	1,000 ×	> 1,000 fold	potent at inducing the accumulation of AVs	CQ dramatically increased the size and number of MDC+ vacuoles	induced overt autophagy	CQ accelerated cell death in combination with III-5; also recorded: combination with CQ accelerated the death of cells	significantly accelerated death rate
